Source: patent US20240366594A1, “Small Molecule Inhibitors of Formation of Neutrophil-Derived Extracellular Traps (NETosis) and Uses Thereof” (The Brigham and Women's Hospital, Inc., priority 2021, published 2024)

Test system: poly(I:C)-treated mice
Assay: Poly(I:C) pulmonary NET induction, mouse model of RNA viral lung infection
Type: in vivo
Conditions: for NET induction (CitH3 and MPO-DNA complexes in BALF and lung tissue): ELISA, FIGS. 2E-2H; for neutrophils in the BALF and in the lung: compared with poly(I:C) only, FIGS. 6D-6F; for neutrophil levels in the blood: cytofluorimetry, FIGS. 6B and 6C; for morbidity, measured as temperature drop / lung permeability (albumin content in BALF) / lung functionality (airway hyperreactivity to methacholine): ricolinostat 30 mg/kg/dose or GSK484 25 mg/kg/dose i.p., vs poly(I:C) only; for morbidity, measured as temperature drop: FIG. 2B; for lung permeability (albumin content in BALF): FIG. 2C; for lung functionality (airway hyperreactivity to methacholine): FIG. 2D
Experimental: Mice were intratracheally treated with 2.5 mg/kg poly(I:C) or saline daily for 4 days and euthanized 18 h post the last poly(I:C) instillation. Ricolinostat (30 mg/kg/dose) or GSK484 (25/mg/kg/dose) was administered intraperitoneally at day 2, day 4, and 3 h before the endpoint. • (B) Body temperature measurements at the endpoint. • (C) Lung permeability was measured as albumin content level in the BALF (n=5). • (D) Measure of airway hyperreactivity (AHR) in the indicated groups in response to increasing concentration of methacholine. RI, responsiveness index. • (E-H) CitH3 and MPO-DNA levels were analyzed by ELISA in BALFs (E, F) and in lungs (G, H) of mice treated as indicated. The saline group represents mice that received saline instead of poly(I:C). NT group represents mice that were challenged with poly(I:C) without receiving any drug. Statistics were calculated using one-way ANOVA (B, C, E-H) and two-way ANOVA with Tukey's analysis (D) (*p<0.05; **p<0.01; ***p<0.001; ****p<0.0001. n.s., not significant). n=10 (B, D) and 15 (E-H) for each group except for the GSK484-treated group (n=5). Gray stars represent comparison of all experimental groups with the saline-treated control. Black stars represent comparison between drug-treated groups and mice treated with poly(I:C) alone. Violin plots represent median (dashed line) with quartiles (dotted line). See also FIGS. 6A-F.
Nuclei are stained with DAPI (blue), and anti-neutrophils antibody (red). Scale bar=100 μm. • B-F) Neutrophils numbers and percentage were calculated in blood (B, C), BALFs (D, E), and lung tissues (F) of mice challenged, or not, with poly(I:C). The saline group represents mice that received saline instead of poly (I:C). NT group represent mice that were challenged with poly (I:C) without receiving any drug. Ricolinostat (30 mg/kg/dose) or GSK484 (25 mg/kg/dose) were administered intraperitoneally at day 2, day 4 and 3 h prior the endpoint. Violin plots represent median (dashed line) with quartiles (dotted line). Statistics were calculated using One-way ANOVA (*P<0.05; **P<0.01; ***P<0.001; ****P<0.0001; n.s., not significant). Grey stars represent comparison of all experimental groups with the saline control. Black stars represent comparison of drug treated groups with NT group.
NETosis was measured in bronco-alveolar lavage fluid or lung tissue homogenates as quantity of citrullinated histone H3 with Citrullinated histone H3 ELISA kit (Cayman) and as quantity of myeloperoxidase (MPO)-DNA complexes by using a modified Cell Death Detection ELISA (Roche). Briefly, anti-myeloperoxidase antibody (ThermoFisher) was used to coat a high-binding 96 multi-well plate overnight at 4° C. Following a 1 h blocking with 2% BSA/PBS solution, samples were added for an overnight incubation at 4° C. Finally, DNA was detected with Cell Death Detection kit according to manufacture instruction. Absorbance was measured at 405 nm and MPO-DNA complex levels were quantified as normalized relative to saline.
6-8 weeks-old female mice were treated daily with 2.5 mg/kg of poly (I:C) for 4 days and euthanized 18 hours post the last poly(I:C) intra-tracheal instillation, as previously described (Broggi et al., 2020). Temperatures were monitored with a rectal probe. NETosis was measured in bronco-alveolar lavage fluid and lung homogenates as quantity of citrullinated histone H3 and quantity of MPO-DNA complexes. Ricolinostat (30 mg/kg/dose) and GSK484 (25 mg/kg/dose) were administered intraperitoneally at day 2, day 4 and 3 hours prior the end point.

SMILES	NET induction (CitH3 and MPO-DNA complexes in BALF and lung tissue)	neutrophils in the BALF and in the lung	neutrophil levels in the blood	morbidity, measured as temperature drop	lung permeability (albumin content in BALF)	lung functionality (airway hyperreactivity to methacholine)	activity compared with GSK484 in all the conditions tested (outcompeted i.e. increased survival of neutrophils in the BALF)
COc1cc(C(=O)N2CC[C@@H](O)[C@@H](N)C2)cc2nc(-c3cc4ccccc4n3CC3CC3)n(C)c12 [GSK484]	abrogated	trend of accumulation	did not change significantly	significantly reduced	significantly preserved	significantly preserved	–
O=C(CCCCCCNC(=O)c1cnc(N(c2ccccc2)c2ccccc2)nc1)NO [ricolinostat]	abrogated	trend of accumulation	did not change significantly	significantly reduced	significantly preserved	significantly preserved	phenocopied, and in some cases outcompeted
